Experiment [1] deals with IL 1-induced release of neutral protease from rabbit articular chondrocytes. Kind of experiment: Inhibition of IL 1-induced release of neutral protease from rabbit articular chondrocytes (% inhibition of protease secretion, azocoll degradation). The conditions noted are these: Oryctolagus cuniculus, Chondrocyte, test compound 10 minutes prior to IL 1, 24 hours after IL 1 stimulation. The class given is cell-based, rabbit (male New Zealand White). As to the method: The ability of the compounds of the inventions to inhibit interleukin 1 is measured by the ability of the test compounds to inhibit the IL 1-induced release of neutral protease from rabbit articular chondrocytes.
This assay is carried out as follows:
Isolation of rabbit chondrocytes:
Male New Zealand White rabbits are anesthetized with 50 mg/kg of ketamine (i.m.) and killed by an intracardiac injection of 3 mls of Nembutal. The knee joints of both legs are resected and the articular surfaces are exposed. Cartilage slices are obtained using a scalpel and are placed in a tissue culture dish (100 mm diameter) containing 10 mls of Hank's balanced salt solution (HBSS). The chondrocytes within the cartilage slices are then liberated by a series of enzyme digestions. The slices are incubated for 10 minutes at 37° C. in 0.05% hyaluronidase (Sigma H-3884), rinsed with HBSS and incubated with 0.2% trypsin (Sigma T-2395) for 10 minutes at 37° C. The slices are rinsed again and incubated for 10 minutes at 37° C. with 1.2% collagenase (Sigma C-5138). The slices are then rinsed again with HBSS and resuspended in 10 ml of Ham's F-12 medium containing 10% fetal bovine calf serum (FCS) and 0.2% collagenase and incubated overnight at 37° C. in a 5% CO2 incubator. The next day, the medium containing the digested cartilage fragments and liberated chondrocytes is transferred to a 15 ml centrifuge tube and the cells are collected by centrifugation and washed twice and resuspended in Ham's F-12 medium. The cells are then plated into 24-well tissue culture plates (2×10^5 cells/well) and incubated at 37° C. until confluent (usually 4-6 days).
Stimulation of chondrocytes and drug treatment
The confluent chondrocytes are rinsed twice with serum-free Ham's F-12 medium and 1 ml is added to each well. Fifty μl of purified human IL 1 (100 Units/ml; Genzyme Corporation, Boston, MA) is then added to stimulate these cells to secrete neutral protease. To measure drug effects, the cells are treated with test compound 10 minutes prior to additon of IL 1. The standard screening dose is 10 μM. Twenty-four hours after IL 1 stimulation, supernatant fluids are collected and assayed for neutral protease activity.
The neutral protease activity of chondrocyte supernatant fluids is determined by their ability to degrade an insoluble protease substrate, azocoll (Sigma). Supernatants are treated for 10 minutes at room temperature with 350 μM p-aminophenylmurcuric acetate to activate the latent enzyme. Three hundred μl of supernatant is then mixed with 500 μl of a 20 mg/ml suspension of azocoll and incubated at 37° C. for 18-24 hours with gentle rocking. The mixtures are centrifuged and the amount of substrate hydrolyzed is determined by measuring the absorbance of the supernatant at 520 nm.
Drug effects are calculated as the % change in enzyme activity (absorbance)by supernatants from drug-treated chondrocytes relative to enzyme activity of supernatants from vehicle-treated chondrocytes as follows:
% Inhibition of Protease Secretion= [formula]

For experiment [2] the test system is unchanged. The experiment is described as above. Conditions: Oryctolagus cuniculus, Chondrocyte, test compound 10 minutes prior to IL 1, 24 hours after IL 1 stimulation. In kind it is cell-based, rabbit (male New Zealand White). The source holds these as a separate data set.

Bounds are passed on as bounds.

In experiment [1], `CC1CCc2nc3cc(Cl)ccc3c(Cl)c2C1` (stereo not shown) [Example 2A, 6,9-Dichloro-1,2,3,4-tetrahydro-2-methylacridine, quarter hydrate] came in with an inhibition at 10 µM of 34 ± 26%.
`Clc1ccc2c(NNc3ccccc3)c3c(nc2c1)CCC(c1ccccc1)C3` (stereo not shown) [Example 3B, 6-Chloro-1,2,3,4-tetrahydro-2-phenyl-9-(2-phenylhydrazino)acridine] yielded an inhibition at 10 µM in experiment [1] of 81 ± 2%. 1 µM produced 27% inhibition in experiment [2].
`c1ccc(NNc2c3c(nc4ccccc24)CCSC3)cc1` [Example 5, 3,4-Dihydro-10-(2-phenylhydrazino)-1H-thiopyrano[4,3-b]quinoline, three-quarters hydrate]: the inhibition at 10 µM in experiment [1] came to 79 ± 14%. In experiment [2], this molecule returned an inhibition at 1 µM of 37% and an inhibition at 5 µM of 55 ± 22%.
The molecule `O=S1(=O)CCc2nc3cc(Cl)ccc3c(NNc3ccccc3)c2C1` [Example 8, 7-Chloro-3,4-dihydro-10-(2-phenylhydrazino)-1H-thiopyrano[4,3-b]quinoline 2,2-dioxide] returned an inhibition at 10 µM in experiment [1] of 16%. In experiment [2], this molecule came in with an inhibition at 1 µM of 3% and an inhibition at 5 µM of 37%.
`COC(=O)C1CCc2nc3cc(Cl)ccc3c(Cl)c2C1` (stereo not shown) [Example 9, 6,9-Dichloro-1,2,3,4-tetrahydro-2-acridinecarboxylic acid methyl ester] displayed an inhibition at 10 µM in experiment [1] of 58%. In experiment [2], this molecule came in with an inhibition at 1 µM of 30% and an inhibition at 5 µM of 53%.
In the case of `O=S1(=O)CCc2nc3ccccc3c(Cl)c2C1` [Example 6, 10-Chloro-3,4-dihydro-1H-thiopyrano[4,3-b]quinoline 2,2-dioxide], in experiment [1], the inhibition at 10 µM stood at 32%. In addition, the inhibition at 5 µM in experiment [2] is 19%.
`CCOC(=O)C1CCc2nc3cc(Cl)ccc3c(NNc3ccccc3)c2C1` (stereo not shown) [Example 10, 6-Chloro-1,2,3,4-tetrahydro-9-(2-phenylhydrazino)-2-acridinecarboxylic acid ethyl ester]: testing at 10 µM in experiment [1] gave an inhibition of 96%. In addition, in experiment [2], the inhibition at 0.1 µM was 70% and testing at 1 µM gave an inhibition of 91%.
For the molecule `Clc1ccc2c(Cl)c3c(nc2c1)CCSC3` [Example 1A, 7,10-Dichloro-3,4-dihydro-1H-thiopyrano[4,3-b]quinoline], in experiment [1], the inhibition at 10 µM came out at 35 ± 11%.
As for `O=C(O)C1CCc2nc3cc(Cl)ccc3c(NNc3ccccc3)c2C1` (stereo not shown) [Example 12, 6-Chloro-1,2,3,4-tetrahydro-9-(2-phenylhydrazino)-2-acridinecarboxylic acid hemihydrate], the inhibition at 10 µM in experiment [1] turned out to be 68%. Moreover, in experiment [2], the inhibition at 0.1 µM came to 57% and the inhibition at 1 µM amounted to 61%.
In experiment [1], `Clc1ccc2c(Cl)c3c(nc2c1)CCC(c1ccccc1)C3` (stereo not shown) [Example 3A, 6,9-Dichloro-1,2,3,4-tetrahydro-2-phenylacridine, hemihydrate] came in with an inhibition at 10 µM not above 20%.
Consider `CC1CCc2nc3cc(Cl)ccc3c(NNc3ccccc3)c2C1` (stereo not shown) [Example 2B, 6-Chloro-1,2,3,4-tetrahydro-2-methyl-9-(2-phenylhydrazino)acridine], for which the inhibition at 10 µM in experiment [1] was found to be 85 ± 6%. Moreover, in experiment [2], testing at 1 µM gave an inhibition of 36%.
For `Clc1ccc2c(NNc3ccccc3)c3c(nc2c1)CCSC3` [Example 1B, 7-Chloro-3,4-dihydro-10-(2-phenylhydrazino)-1H-thiopyrano[4,3-b]quinoline], the inhibition at 10 µM in experiment [1] came out at 98 ± 1%. In experiment [2], this molecule returned an inhibition at 0.1 µM of 67%, an inhibition at 1 µM of 94% and an inhibition at 5 µM of 93 ± 5%.
As to `O=S1(=O)CCc2nc3cc(Cl)ccc3c(Cl)c2C1` [Example 7, 7,10-Dichloro-3,4-dihydro-1H-thiopyrano[4,3-b]quinoline 2,2-dioxide], in experiment [1], the inhibition at 10 µM stood at 25%. For the same molecule, in experiment [2], the inhibition at 1 µM amounted to 10% and at 5 µM the inhibition was 26%.
In turn, `O=C(O)C1CCc2nc3cc(Cl)ccc3c(Cl)c2C1` (stereo not shown) [Example 11, 6,9-Dichloro-1,2,3,4-tetrahydro-2-acridinecarboxylic acid] displayed an inhibition at 10 µM in experiment [1] of 88%. Further, in experiment [2], testing at 0.1 µM gave an inhibition of 58% and the inhibition at 1 µM amounted to 50%.
Take `Clc1c2c(nc3ccccc13)CCSC2` [Example 4, 10-Chloro-3,4-dihydro-1H-thiopyrano[4,3-b]quinoline]: testing at 10 µM in experiment [1] gave an inhibition of 43%. Besides, in experiment [2], the inhibition at 1 µM was 38% and 5 µM produced 46% inhibition.

Values taken from patent US4851536A, “Cyclohexylquinolines as inhibitors of interleukin 1” (American Home Products Corporation, priority 1988, dated 1989).
